# Assays:
# 5-HT transporter = target: T1, 5-HT transporter (Rattus norvegicus, UniProt P31652); assay: 5-HT uptake inhibition in rat brain synaptosomes (medulla and pons); format: biochemical
# T1 construct: from tissue; host or cells: rat medulla and pons synaptosomes (P2 fraction)
# Text: (§1) I. Method for Determining Noradrenalin and 5-HT Uptake Inhibition:
# (§2) Synaptosomes from rat brain regions are freshly isolated for in vitro studies, as described in the publication “The isolation of nerve endings from brain” by E. G. Gray and V. P. Whittaker, J. Anatomy 96, pages 79-88, 1962. The corresponding literature description is hereby introduced as a reference and is deemed to be part of the disclosure.
# (§3) The tissue (hypothalamus for the determination of noradrenalin uptake inhibition and medulla and pons for the determination of 5-HT uptake inhibition) is homogenised in ice-cooled 0.32 M sucrose (100 mg of tissue/1 mL) in a glass homogeniser with Teflon pestle using five complete up and down strokes at 840 revolutions/minute.
# (§4) The homogenate is centrifuged at 4° C. for 10 minutes at 1000 g. After subsequent centrifugation at 17000 g for 55 minutes, the synaptosomes (P2 fraction) are obtained, which are resuspended in 0.32 M […] (0.5 mL/100 mg of original weight).
# (§5) The particular uptake is measured in a 96-well microtitre plate. The volume is 250 μl and the incubation proceeds at room temperature (approx. 20-25° C.) under an O2 atmosphere.
# (§6) The incubation time is 7.5 minutes for [^3H]-NA and 5 minutes for [^3H]-5-HT.
# (§7) The 96 samples are then filtered through a Unifilter GF/B microtitre plate (Packard) and washed with 200 mL of incubated buffer using a “Brabdel MPXRI-96T Cell-Harvester”. The Unifilter GF/B plate is dried for 1 hour at 55° C. The plate is then sealed with a Back seal (Packard) and 35 μl of scintillation fluid are added per well (Ultima Gold, Packard). After sealing with a top seal (Packard) and establishing an equilibrium (around 5 hours), radioactivity is determined in a “Trilux 1450 Microbeta” (Wallac).
# (§8) The quantity of protein used in the above determination corresponds to the values known from the literature, as for example described in “Protein measurement with the folin phenol reagent”, Lowry et al., J. Biol. Chem., 193, 265-275, 1951.
# (§9) A detailed description of the method may additionally be found in the literature, for example in M. Ch. Frink, H.-H. Hennies, W. Engelberger, M. Haurand and B. Wilffert (1996) Arzneim.-Forsch./Drug Res. 46 (III), 11, 1029-1036.
# (§10) The corresponding literature descriptions are hereby introduced in each case as a reference and are deemed to be part of the present disclosure.
# (§11) The following characteristics were determined for the NA or 5-HT transporter: […]
# NA transporter = target: T2, NA transporter (Rattus norvegicus, UniProt Q63380); assay: Noradrenalin uptake inhibition in rat brain synaptosomes (hypothalamus); format: biochemical
# T2 construct: from tissue; host or cells: rat hypothalamus synaptosomes (P2 fraction)
# T2 sequence (Q63380 1-617): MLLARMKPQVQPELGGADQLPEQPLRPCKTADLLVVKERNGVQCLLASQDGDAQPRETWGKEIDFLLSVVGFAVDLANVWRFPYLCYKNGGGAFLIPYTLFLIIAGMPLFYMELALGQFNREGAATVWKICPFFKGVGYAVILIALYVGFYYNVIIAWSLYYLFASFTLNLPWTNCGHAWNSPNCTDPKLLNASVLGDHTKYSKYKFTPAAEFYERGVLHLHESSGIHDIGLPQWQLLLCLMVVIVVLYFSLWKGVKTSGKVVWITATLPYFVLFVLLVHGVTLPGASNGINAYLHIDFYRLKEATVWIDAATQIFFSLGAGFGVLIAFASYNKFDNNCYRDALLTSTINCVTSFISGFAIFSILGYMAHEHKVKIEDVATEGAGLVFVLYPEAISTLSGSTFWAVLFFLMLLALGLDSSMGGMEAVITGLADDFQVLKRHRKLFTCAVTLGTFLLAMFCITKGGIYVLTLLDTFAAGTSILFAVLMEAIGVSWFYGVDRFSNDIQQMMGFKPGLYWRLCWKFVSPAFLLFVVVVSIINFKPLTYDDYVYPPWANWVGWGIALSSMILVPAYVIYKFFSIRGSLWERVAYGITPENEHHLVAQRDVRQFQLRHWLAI
# Text: as §1, §2, §3, §4, §5, §6, §7, §8, §9, §10, §11
# T1 sequence (P31652 whole entry): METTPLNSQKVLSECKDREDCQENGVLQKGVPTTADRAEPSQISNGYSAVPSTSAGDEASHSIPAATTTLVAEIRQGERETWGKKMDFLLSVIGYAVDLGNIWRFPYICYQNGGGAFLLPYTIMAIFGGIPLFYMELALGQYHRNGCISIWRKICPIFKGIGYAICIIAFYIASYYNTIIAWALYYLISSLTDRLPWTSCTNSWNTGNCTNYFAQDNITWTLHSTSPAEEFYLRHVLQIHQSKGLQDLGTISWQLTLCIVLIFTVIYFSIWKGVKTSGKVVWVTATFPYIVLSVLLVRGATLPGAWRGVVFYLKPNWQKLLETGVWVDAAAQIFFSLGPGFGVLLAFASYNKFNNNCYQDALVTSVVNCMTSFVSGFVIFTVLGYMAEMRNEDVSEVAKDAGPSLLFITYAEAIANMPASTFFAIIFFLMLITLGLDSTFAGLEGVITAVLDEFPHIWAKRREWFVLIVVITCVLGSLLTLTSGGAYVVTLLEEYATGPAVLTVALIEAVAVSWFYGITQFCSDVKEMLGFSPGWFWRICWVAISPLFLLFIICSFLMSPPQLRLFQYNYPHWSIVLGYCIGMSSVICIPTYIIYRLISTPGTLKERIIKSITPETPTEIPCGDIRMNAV
SMILES,inhibition at 1 µM (5-HT transporter) [%],inhibition at 10 µM (NA transporter) [%]
"O=C(Nc1ncc2c(n1)CCN(C(=O)c1ccc(OC(F)(F)F)cc1)C2)c1cc(Cl)cc(Cl)c1 [Example 192, 3,5-dichloro-N-[6-(4-trifluoromethoxy-benzoyl)-5,6,7,8-tetrahydro-pyrido[4,3-d]pyrimidin-2-yl]-benzamide]",47,73
"CC(C)(C)c1ccc(C(=O)Nc2ncc3c(n2)CCN(C(=O)c2csc4ccccc24)C3)cc1 [Example 184, N-[6-(benzo[b]thiophene-3-carbonyl)-5,6,7,8-tetrahydro-pyrido[4,3-d]pyrimidin-2-yl]-4-tert-butyl-benzamide]",48,69
"CCc1ccc(C(=O)Nc2ncc3c(n2)CCN(C(=O)c2ccc(Cl)c(Cl)c2)C3)cc1 [Example 101, N-[6-(3,4-dichloro-benzoyl)-5,6,7,8-tetrahydro-pyrido[4,3-d]pyrimidin-2-yl]-4-ethyl-benzamide]",65,84
"O=C(Nc1ncc2c(n1)CCN(C(=O)Cc1ccc(Cl)cc1)C2)c1ccc(Cl)c(Cl)c1 [Example 126, 3,4-dichloro-N-{6-[2-(4-chloro-phenyl)-acetyl]-5,6,7,8-tetrahydro-pyrido[4,3-d]pyrimidin-2-yl}-benzamide]",55,89
"Cc1cccc(C(=O)Nc2ncc3c(n2)CCN(S(=O)(=O)c2cccc(C)c2)C3)c1 [Example 116, 3-methyl-N-[6-(toluene-3-sulfonyl)-5,6,7,8-tetrahydro-pyrido[4,3-d]pyrimidin-2-yl]-benzamide]",31,52
"CC(C)(C)c1ccc(C(=O)Nc2ncc3c(n2)CCN(S(=O)(=O)c2ccc([N+](=O)[O-])cc2)C3)cc1 [Example 83, 4-tert-butyl-N-[6-(4-nitro-benzenesulfonyl)-5,6,7,8-tetrahydro-pyrido[4,3-d]pyrimidin-2-yl]-benzamide]",39,77
"O=C(Nc1ncc2c(n1)CCN(C(=O)C1=Cc3ccccc3OC1)C2)c1ccc(F)c(F)c1 [Example 175, N-[6-(2H-chromene-3-carbonyl)-5,6,7,8-tetrahydro-pyrido[4,3-d]pyrimidin-2-yl]-3,4-difluoro-benzamide]",32,46
"O=C(Nc1ncc2c(n1)CCN(C(=O)Cc1c(Cl)cccc1Cl)C2)c1cccc(Cl)c1 [Example 187, 3-chloro-N-{6-[2-(2,6-dichloro-phenyl)-acetyl]-5,6,7,8-tetrahydro-pyrido[4,3-d]pyrimidin-2-yl}-benzamide]",29,100
"Cc1ccc(C(=O)N2CCc3nc(NC(=O)c4ccc(C(C)(C)C)cc4)ncc3C2)cc1[N+](=O)[O-] [Example 92, 4-tert-butyl-N-[6-(4-methyl-3-nitro-benzoyl)-5,6,7,8-tetrahydro-pyrido[4,3-d]pyrimidin-2-yl]-benzamide]",66,35
"O=C(Nc1ncc2c(n1)CCN(C(=O)c1ccc(-c3cccs3)cc1)C2)c1cc(Cl)cc(Cl)c1 [Example 144, 3,5-dichloro-N-[6-(4-thiophen-2-yl-benzoyl)-5,6,7,8-tetrahydro-pyrido[4,3-d]pyrimidin-2-yl]-benzamide]",42,67
"CC(C)(C)c1ccc(C(=O)Nc2ncc3c(n2)CCN(S(=O)(=O)c2ccc4c(c2)OCCO4)C3)cc1 [Example 186, 4-tert-butyl-N-[6-(2,3-dihydro-benzo[1,4]dioxin-6-sulfonyl)-5,6,7,8-tetrahydro-pyrido[4,3-d]pyrimidin-2-yl]-benzamide]",46,82
"Cc1ccccc1C(=O)N1CCc2nc(NC(=O)c3cccc(Cl)c3)ncc2C1 [Example 109, 3-chloro-N-[6-(2-methyl-benzoyl)-5,6,7,8-tetrahydro-pyrido[4,3-d]pyrimidin-2-yl]-benzamide]",30,92
"Cc1cc(C)c(S(=O)(=O)N2CCc3nc(NC(=O)c4ccc(Cl)c(Cl)c4)ncc3C2)c(C)c1 [Example 95, 3,4-dichloro-N-[6-(2,4,6-trimethyl-benzenesulfonyl)-5,6,7,8-tetrahydro-pyrido[4,3-d]pyrimidin-2-yl]-benzamide]",59,72
"CCc1ccc(C(=O)Nc2ncc3c(n2)CCN(S(=O)(=O)c2ccccc2Cl)C3)cc1 [Example 114, N-[6-(2-chloro-benzenesulfonyl)-5,6,7,8-tetrahydro-pyrido[4,3-d]pyrimidin-2-yl]-4-ethyl-benzamide]",50,73
"O=C(Nc1ncc2c(n1)CCN(S(=O)(=O)c1ccc(Cl)s1)C2)c1cccc2ccccc12 [Example 117, naphthalene-1-carboxylic acid [6-(5-chloro-thiophene-2-sulfonyl)-5,6,7,8-tetrahydro-pyrido[4,3-d]pyrimidin-2-yl]-amide]",32,31
"O=C(Nc1ncc2c(n1)CCN(C(=O)c1sc3ccccc3c1Cl)C2)c1ccccc1 [Example 120, N-[6-(3-chloro-benzo[b]thiophene-2-carbonyl)-5,6,7,8-tetrahydro-pyrido[4,3-d]pyrimidin-2-yl]-benzamide]",92,78
"O=C(Nc1ncc2c(n1)CCN(C(=O)CCCCc1ccccc1)C2)c1ccccc1 [Example 190, N-[6-(5-phenyl-pentanoyl)-5,6,7,8-tetrahydro-pyrido[4,3-d]pyrimidin-2-yl]-benzamide]",36,73
"CCc1ccc(C(=O)Nc2ncc3c(n2)CCN(C(=O)c2ccc(-n4cccn4)cc2)C3)cc1 [Example 74, 4-ethyl-N-[6-(4-pyrazol-1-yl-benzoyl)-5,6,7,8-tetrahydro-pyrido[4,3-d]pyrimidin-2-yl]-benzamide]",54,43
"Cc1cc(C)c(C)c(S(=O)(=O)N2CCc3nc(NC(=O)c4cccs4)ncc3C2)c1C [Example 99, thiophene-2-carboxylic acid [6-(2,3,5,6-tetramethyl-benzenesulfonyl)-5,6,7,8-tetrahydro-pyrido[4,3-d]pyrimidin-2-yl]-amide]",41,56
"COc1ccccc1C(=O)Nc1ncc2c(n1)CCN(S(=O)(=O)c1c(C)cc(OC)c(C)c1C)C2 [Example 158, 2-methoxy-N-[6-(4-methoxy-2,3,6-trimethyl-benzenesulfonyl)-5,6,7,8-tetrahydro-pyrido[4,3-d]pyrimidin-2-yl]-benzamide]",55,36
"CCc1ccc(C(=O)Nc2ncc3c(n2)CCN(S(=O)(=O)c2ccc4c(c2)CN(C(=O)C(F)(F)F)CC4)C3)cc1 [Example 157, 4-ethyl-N-{6-[2-(2,2,2-trifluoro-acetyl)-1,2,3,4-tetrahydro-isoquinoline-7-sulfonyl]-5,6,7,8-tetrahydro-pyrido[4,3-d]pyrimidin-2-yl}-benzamide]",43,61
"O=C(Nc1ncc2c(n1)CCN(S(=O)(=O)c1ccc(OC(F)(F)F)cc1)C2)c1ccc(Cl)c(Cl)c1 [Example 134, 3,4-dichloro-N-[6-(4-trifluoromethoxy-benzenesulfonyl)-5,6,7,8-tetrahydro-pyrido[4,3-d]pyrimidin-2-yl]-benzamide]",58,59
"O=C(Nc1ncc2c(n1)CCN(C(=O)c1sc3ccccc3c1Cl)C2)c1cccs1 [Example 110, thiophene-2-carboxylic acid [6-(3-chloro-benzo[b]thiophene-2-carbonyl)-5,6,7,8-tetrahydro-pyrido[4,3-d]pyrimidin-2-yl]-amide]",96,75

# Reference: patent US20090176811A1, “Substituted 5,6,7,8-Tetrahydro-pyrido[4,3-d]pyrimidine-2-yl Compounds and 5,6,7,8-Tetrahydro-quinazoline-2-yl Compounds” (GRUENENTHAL GmbH, priority 2004, published 2009)
